Reference: ChEMBL document CHEMBL1201862, “PubChem BioAssay data set” (2004)
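48-hour exposure; five concentrations; linearly interpolated endpoints. Here, GI50 denotes the concentration required for 50% inhibition of growth.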 Calls of active or inactive are those of the source. Rule as the data show it: active = GI50 up to about 1.1 µM and inactive = higher.

Assays:
Assay in all cases: growth of human tumour cells (NCI), 48 h
786-0 = tested on: 786-0
A498 = tested on: A498
A549 = tested on: A549
ACHN = tested on: ACHN
CAKI-1 = tested on: CAKI-1
CCRF-CEM = tested on: CCRF-CEM
COLO 205 = tested on: COLO 205
DLD-1 = tested on: DLD-1
DMS-114 = tested on: DMS-114
DMS-273 = tested on: DMS-273
EKVX = tested on: EKVX
HCC 2998 = tested on: HCC 2998
HCT-116 = tested on: HCT-116
HCT-15 = tested on: HCT-15
HL-60 = tested on: HL-60
HOP-18 = tested on: HOP-18
HOP-62 = tested on: HOP-62
HOP-92 = tested on: HOP-92
HT-29 = tested on: HT-29
IGROV-1 = tested on: IGROV-1
K562 = tested on: K562
KM-20L2 = tested on: KM-20L2
KM12 = tested on: KM12
LOX IMVI = tested on: LOX IMVI
LXFL 529 = tested on: LXFL 529
M14 = tested on: M14
M19-MEL = tested on: M19-MEL
MOLT-4 = tested on: MOLT-4
Malme-3M = tested on: Malme-3M
NCI-H23 = tested on: NCI-H23
NCI-H460 = tested on: NCI-H460
NCI-H522 = tested on: NCI-H522
OVCAR-3 = tested on: OVCAR-3
OVCAR-4 = tested on: OVCAR-4
OVCAR-5 = tested on: OVCAR-5
OVCAR-8 = tested on: OVCAR-8
RPMI-8226 = tested on: RPMI-8226
RXF 631 = tested on: RXF 631
SF-268 = tested on: SF-268
SF-295 = tested on: SF-295
SF-539 = tested on: SF-539
SK-MEL-28 = tested on: SK-MEL-28
SK-MEL-2 = tested on: SK-MEL-2
SK-MEL-5 = tested on: SK-MEL-5
SK-OV-3 = tested on: SK-OV-3
SN12C = tested on: SN12C
SNB-19 = tested on: SNB-19
SNB-78 = tested on: SNB-78
SW-620 = tested on: SW-620
TK-10 = tested on: TK-10
U-251 = tested on: U-251
UACC-257 = tested on: UACC-257
UACC-62 = tested on: UACC-62
UO-31 = tested on: UO-31
XF498 = tested on: XF498
RXF 393 = tested on: RXF 393
SNB-75 = tested on: SNB-75
NCI-H226 = tested on: NCI-H226

In the case of COc1ccc(OC(C(=O)O)c2ccccc2)c2c1CCCC2=O (stereo unspecified), the GI50 (786-0) is reported as > 100 µM (inactive), the GI50 (A498) is reported as > 100 µM (inactive) and the GI50 (A549) is reported as > 100 µM (inactive). For the same compound, the GI50 (ACHN) was > 100 µM (inactive), the GI50 (CAKI-1) was > 100 µM (inactive) and the GI50 (CCRF-CEM) was > 100 µM (inactive). For the same compound, the GI50 (COLO 205) was > 100 µM (inactive), the GI50 (DLD-1) was > 100 µM (inactive) and the GI50 (DMS-114) was > 100 µM (inactive). For the same compound, the GI50 (DMS-273) was > 100 µM (inactive), the GI50 (EKVX) was > 100 µM (inactive) and the GI50 (HCC 2998) was > 100 µM (inactive). The GI50 (HCT-116) was > 100 µM (inactive), the GI50 (HCT-15) was > 100 µM and the GI50 (HL-60) was > 100 µM (inactive). For the same compound, the GI50 (HOP-18) was > 100 µM (inactive), the GI50 (HOP-62) was > 100 µM (inactive) and the GI50 (HOP-92) was > 100 µM (inactive). The GI50 (HT-29) was > 100 µM (inactive), the GI50 (IGROV-1) was > 100 µM (inactive) and the GI50 (K562) was > 100 µM (inactive). For the same compound, the GI50 (KM-20L2) was > 100 µM (inactive), the GI50 (KM12) was > 100 µM (inactive) and the GI50 (LOX IMVI) was > 100 µM (inactive). The GI50 (LXFL 529) was > 100 µM (inactive), the GI50 (M14) was > 100 µM (inactive) and the GI50 (M19-MEL) was > 100 µM (inactive). The GI50 (MOLT-4) was > 100 µM (inactive), the GI50 (Malme-3M) was > 100 µM (inactive) and the GI50 (NCI-H23) was > 100 µM (inactive). For the same compound, the GI50 (NCI-H460) was > 100 µM (inactive), the GI50 (NCI-H522) was > 100 µM (inactive) and the GI50 (OVCAR-3) was > 100 µM (inactive). The GI50 (OVCAR-4) was > 100 µM (inactive), the GI50 (OVCAR-5) was > 100 µM (inactive) and the GI50 (OVCAR-8) was > 100 µM (inactive). For the same compound, the GI50 (RPMI-8226) was > 100 µM (inactive), the GI50 (RXF 631) was > 100 µM (inactive) and the GI50 (SF-268) was > 100 µM (inactive). For the same compound, the GI50 (SF-295) was > 100 µM (inactive), the GI50 (SF-539) was > 100 µM (inactive) and the GI50 (SK-MEL-28) was > 100 µM (inactive). For the same compound, the GI50 (SK-MEL-2) was > 100 µM (inactive), the GI50 (SK-MEL-5) was > 100 µM (inactive) and the GI50 (SK-OV-3) was > 100 µM (inactive). For the same compound, the GI50 (SN12C) was > 100 µM (inactive), the GI50 (SNB-19) was > 100 µM (inactive) and the GI50 (SNB-78) was > 100 µM (inactive). The GI50 (SW-620) was > 100 µM (inactive), the GI50 (TK-10) was > 100 µM (inactive) and the GI50 (U-251) was > 100 µM (inactive). For the same compound, the GI50 (UACC-257) was > 100 µM (inactive), the GI50 (UACC-62) was > 100 µM (inactive) and the GI50 (UO-31) was > 100 µM (inactive). The GI50 (XF498) was > 100 µM (inactive).

In the case of Cc1cccc(C)c1NC(=O)CCCC(=O)CC(=O)/C=C/c1ccccc1, the GI50 (786-0) is reported as > 100 µM (inactive), the GI50 (A498) is reported as > 100 µM (inactive) and the GI50 (A549) is reported as > 100 µM (inactive). The GI50 (ACHN) was > 100 µM (inactive), the GI50 (CAKI-1) was > 100 µM (inactive) and the GI50 (CCRF-CEM) was > 100 µM (inactive). For the same compound, the GI50 (COLO 205) was > 100 µM (inactive), the GI50 (DLD-1) was > 100 µM (inactive) and the GI50 (DMS-114) was > 100 µM (inactive). For the same compound, the GI50 (DMS-273) was > 100 µM (inactive), the GI50 (HCT-116) was > 100 µM (inactive) and the GI50 (HCT-15) was > 100 µM. For the same compound, the GI50 (HOP-18) was > 100 µM (inactive), the GI50 (HOP-92) was > 100 µM (inactive) and the GI50 (HT-29) was > 100 µM (inactive). The GI50 (IGROV-1) was > 100 µM (inactive), the GI50 (K562) was > 100 µM (inactive) and the GI50 (KM-20L2) was > 100 µM (inactive). For the same compound, the GI50 (KM12) was > 100 µM (inactive), the GI50 (LOX IMVI) was > 100 µM (inactive) and the GI50 (LXFL 529) was > 100 µM (inactive). The GI50 (M14) was > 100 µM (inactive), the GI50 (M19-MEL) was > 100 µM (inactive) and the GI50 (MOLT-4) was > 100 µM (inactive). For the same compound, the GI50 (Malme-3M) was > 100 µM (inactive), the GI50 (NCI-H23) was > 100 µM (inactive) and the GI50 (NCI-H460) was > 100 µM (inactive). For the same compound, the GI50 (NCI-H522) was > 100 µM (inactive), the GI50 (OVCAR-3) was > 100 µM (inactive) and the GI50 (OVCAR-4) was > 100 µM (inactive). For the same compound, the GI50 (OVCAR-5) was > 100 µM (inactive), the GI50 (OVCAR-8) was > 100 µM (inactive) and the GI50 (RPMI-8226) was > 100 µM (inactive). For the same compound, the GI50 (RXF 393) was > 100 µM (inactive), the GI50 (RXF 631) was > 100 µM (inactive) and the GI50 (SF-268) was > 100 µM (inactive). The GI50 (SF-539) was > 100 µM (inactive), the GI50 (SK-MEL-28) was > 100 µM (inactive) and the GI50 (SK-MEL-2) was > 100 µM (inactive). The GI50 (SK-MEL-5) was > 100 µM (inactive), the GI50 (SK-OV-3) was > 100 µM (inactive) and the GI50 (SN12C) was > 100 µM (inactive). For the same compound, the GI50 (SNB-19) was > 100 µM (inactive), the GI50 (SNB-75) was > 100 µM (inactive) and the GI50 (SNB-78) was > 100 µM (inactive). The GI50 (SW-620) was > 100 µM (inactive), the GI50 (TK-10) was > 100 µM (inactive) and the GI50 (U-251) was > 100 µM (inactive). The GI50 (UACC-257) was > 100 µM (inactive), the GI50 (UACC-62) was > 100 µM (inactive) and the GI50 (UO-31) was > 100 µM (inactive). The GI50 (XF498) was > 100 µM (inactive).

CCCCCCCCCCCCCCNCC(OC)OC was tested, and the GI50 (786-0) was 16 µM (inactive), the GI50 (A498) was 19.8 µM (inactive) and the GI50 (A549) was 19.5 µM (inactive). The GI50 (ACHN) was 16.2 µM (inactive), the GI50 (CCRF-CEM) was 9.18 µM (inactive) and the GI50 (COLO 205) was 14.4 µM (inactive). For the same compound, the GI50 (DLD-1) was 14.6 µM (inactive), the GI50 (DMS-114) was 14 µM (inactive) and the GI50 (DMS-273) was 17.5 µM (inactive). The GI50 (EKVX) was 18.2 µM (inactive), the GI50 (HCC 2998) was 18.6 µM (inactive) and the GI50 (HCT-116) was 13.1 µM (inactive). The GI50 (HCT-15) was 11.8 µM, the GI50 (HL-60) was 5.25 µM (inactive) and the GI50 (HOP-18) was 13.3 µM (inactive). For the same compound, the GI50 (HOP-62) was 16.7 µM (inactive), the GI50 (HOP-92) was 10.2 µM (inactive) and the GI50 (HT-29) was 3.78 µM (inactive). The GI50 (IGROV-1) was 17 µM (inactive), the GI50 (KM-20L2) was 14.4 µM (inactive) and the GI50 (KM12) was 13.3 µM (inactive). The GI50 (LOX IMVI) was 16.4 µM (inactive), the GI50 (LXFL 529) was 16.3 µM (inactive) and the GI50 (M14) was 14.1 µM (inactive). The GI50 (M19-MEL) was 18.1 µM (inactive), the GI50 (Malme-3M) was 19.8 µM (inactive) and the GI50 (NCI-H226) was 17.1 µM (inactive). For the same compound, the GI50 (NCI-H23) was 20.2 µM (inactive), the GI50 (NCI-H460) was 17.8 µM (inactive) and the GI50 (NCI-H522) was 16.9 µM (inactive). The GI50 (OVCAR-3) was 17.3 µM (inactive), the GI50 (OVCAR-4) was 15.1 µM (inactive) and the GI50 (OVCAR-5) was 14.6 µM (inactive). The GI50 (OVCAR-8) was 20.1 µM (inactive), the GI50 (RXF 393) was 14.7 µM (inactive) and the GI50 (RXF 631) was 15.2 µM (inactive). The GI50 (SF-268) was 18.5 µM (inactive), the GI50 (SF-295) was 19.7 µM (inactive) and the GI50 (SF-539) was 16.9 µM (inactive). The GI50 (SK-MEL-28) was 16.5 µM (inactive), the GI50 (SK-MEL-2) was 16.4 µM (inactive) and the GI50 (SK-MEL-5) was 15.2 µM (inactive). The GI50 (SK-OV-3) was 18.7 µM (inactive), the GI50 (SN12C) was 15.1 µM (inactive) and the GI50 (SNB-19) was 17.9 µM (inactive). For the same compound, the GI50 (SNB-75) was 13.8 µM (inactive), the GI50 (SNB-78) was 17.4 µM (inactive) and the GI50 (SW-620) was 16.1 µM (inactive). The GI50 (TK-10) was 17.4 µM (inactive), the GI50 (U-251) was 16.3 µM (inactive) and the GI50 (UACC-257) was 19.4 µM (inactive). For the same compound, the GI50 (UACC-62) was 19.6 µM (inactive), the GI50 (UO-31) was 12.8 µM (inactive) and the GI50 (XF498) was 16.7 µM (inactive).
